Reference: patent US8071625B2, “Certain chemical entities, compositions, and methods” (Cytokinetics, Inc., priority 2006, dated 2011)
pIC50: −log10 of the molar value.

Target: T1, crosslinked smooth muscle actomyosin (chicken gizzard smooth muscle myosin subfragment-1 crosslinked to cardiac or skeletal actin) (Gallus gallus, UniProt P10587)
T1 construct: chicken gizzard smooth muscle myosin subfragment-1; from tissue; host or cells: chicken gizzard
Assay: Lead optimization pyruvate kinase/horseradish peroxidase/pyruvate oxidase-coupled ATPase assay (compound dose response)
Assay type: biochemical
Details: read-out: IC50 Arithmetic Mean
Description: Screening assays were performed using a pyruvate kinase and lactate dehydrogenase-coupled ATPase assay containing the following reagents: Potassium PIPES (50 mM), MgCl2 (3 mM), KCl (100 mM), ATP (0.15 mM), DTT (1 mM), BSA (0.1 mg/ml), NADH (0.5 mM), PEP (1.5 mM), pyruvate kinase (4 U/ml), lactate dehydrogenase (8 U/ml), and antifoam (50 ppm) (concentrations expressed are final assay concentrations). The pH was adjusted to 6.80 at 22° C. by addition of potassium hydroxide. Lead optimization assays were performed with a more sensitive pyruvate kinase/horseradish peroxidase/pyruvate oxidase-coupled ATPase assay containing the following reagents: Potassium PIPES (12 mM), MgCl2 (2 mM), KCl (100 mM), ATP (0.15 mM), BSA (0.05 mg/ml), potassium phosphate (2 mM), amplex red (0.1 mM), PEP (0.1 mM), pyruvate kinase (4 U/ml), horseradish peroxidase (0.5 U/ml), pyruvate oxidase (0.5 U/ml), and antifoam (50 ppm) (concentrations expressed are final assay concentrations). The pH was adjusted to 7.00 at 22° C. by addition of potassium hydroxide.
The protein components specific to this assay are chicken gizzard smooth muscle myosin subfragment-1 that has been chemically crosslinked to either cardiac or skeletal actin using an excess of 1-Ethyl-3-[3-dimethylaminopropyl]carbodiimide hydrochloride and N-hydroxysuccinimide. The exact concentration of the crosslinked smooth muscle myosin in the assay is determined empirically, by titration to achieve a desired rate of ATP hydrolysis. The concentration varies between protein preparations due to variations in the fraction of active molecules in each preparation.
Compound dose response assays are performed by first preparing a dilution series of test compound, each with an assay mixture containing potassium PIPES, MgCl2, KCl, ATP, BSA, potassium phosphate, amplex red, PEP, crosslinked smooth muscle actomyosin (subfragment-1), antifoam, and water. The assay is started by adding an equal volume of solution containing potassium Pipes, MgCl2, KCl, BSA, potassium phosphate, pyruvate kinase, horseradish peroxidase, pyruvate oxidase, antifoam, and water. ATP hydrolysis is monitored by measuring the fluorescence of amplex red (excitation at 480 nm, emission at 615 nm). The resulting dose response curve is fit by the 4 parameter equation y=Bottom+((Top-Bottom)/(1+((IC50/X)^Hill))). The IC50 is defined as the concentration at which ATPase activity is midway between the top and bottom of the dose response curve.

Row | SMILES | pIC50
1 | CCc1ccc(NC(=O)OCC2(C(=O)NCc3ccccc3Cl)CCN(C(=O)[C@@H](N)CO)CC2)cc1 [(1-((2S)-2-amino-3-hydroxypropanoyl)-4-{[N-(4-ethylphenyl)carbamoyloxy]methyl}(4-piperidyl))-N-[(2-chlorophenyl)methyl]carboxamide] | 6.90
2 | CCc1ccc(NC(=O)OCC2(C(=O)NCc3ccccc3Cl)CCN(S(=O)(=O)CCN)CC2)cc1 [(1-[(2-aminoethyl)sulfonyl]-4-{[N-(4-ethylphenyl)carbamoyloxy]methyl}(4-piperidyl))-N-[(2-chlorophenyl)methyl]carboxamide] | 6.56
3 | CCc1ccc(NC(=O)OCC2(C(=O)NCc3ccccc3C#N)CCN(C(=O)CNC(=O)OC(C)(C)C)CC2)cc1 [(1-{2-[(tert-butoxy)carbonylamino]acetyl}-4-{[N-(4-ethylphenyl)carbamoyloxy]methyl}(4-piperidyl))-N-[(2-cyanophenyl)methyl]carboxamide] | 5.11
4 | CCc1ccc(NC(=O)OCC2(C(=O)NCc3ccccc3OC)CCN(C(=O)CNC(=O)OC(C)(C)C)CC2)cc1 [(1-{2-[(tert-butoxy)carbonylamino]acetyl}-4-{[N-(4-ethylphenyl)carbamoyloxy]methyl}(4-piperidyl))-N-[(2-methoxyphenyl)methyl]carboxamide] | 4.95
5 | CCc1ccc(NC(=O)NC[C@@H]2CCCN2C(=O)OCc2ccccc2Cl)cc1 [(2-chlorophenyl)methyl (2S)-2-({[(4-ethylphenyl)amino]carbonylamino}methyl)pyrrolidinecarboxylate] | 5.45
6 | Cc1ccc(NC(=O)OCC2(C(=O)NCc3ccccc3Cl)CCOCC2)cc1C [(4-{[N-(3,4-dimethylphenyl)carbamoyloxy]methyl}(2H-3,4,5,6-tetrahydropyran-4-yl))-N-[(2-chlorophenyl)methyl]carboxamide] | 5.63
7 | Cc1c(Cl)cccc1NC(=O)OCC1(C(=O)NCc2ccccc2Cl)CCOCC1 [(4-{[N-(3-chloro-2-methylphenyl)carbamoyloxy]methyl}(2H-3,4,5,6-tetrahydropyran-4-yl))-N-[(2-chlorophenyl)methyl]carboxamide] | 4.79
8 | CC(=O)c1ccc(NC(=O)OCC2(C(=O)NCc3ccccc3Cl)CCOCC2)cc1 [(4-{[N-(4-acetylphenyl)carbamoyloxy]methyl}(2H-3,4,5,6-tetrahydropyran-4-yl))-N-[(2-chlorophenyl)methyl]carboxamide] | 5.37
9 | O=C(Nc1ccc(Cl)cc1)OCC1(C(=O)NCc2ccccc2Cl)CCOCC1 [(4-{[N-(4-chlorophenyl)carbamoyloxy]methyl}(2H-3,4,5,6-tetrahydropyran-4-yl))-N-[(2-chlorophenyl)methyl]carboxamide] | 5.56
10 | CCc1ccc(NC(=O)N(CCNC(=O)OC(C)(C)C)CC2(C(=O)NCc3ccccc3Cl)CCN(C(=O)CNC(=O)OC(C)(C)C)CC2)cc1 [(tert-butoxy)-N-(2-{N-[(1-{2-[(tert-butoxy)carbonylamino]acetyl}-4-{N-[(2-chlorophenyl)methyl]carbamoyl}(4-piperidyl))methyl][(4-ethylphenyl)amino]carbonylamino}ethyl)carboxamide] | 4.71
11 | CCc1ccc(NC(=O)OCC2(C(=O)NCc3ccccc3Br)CCN(C(=O)CN(C)C(=O)OC(C)(C)C)CC2)cc1 [(tert-butoxy)-N-[2-(4-{N-[(2-bromophenyl)methyl]carbamoyl}-4-{[N-(4-ethylphenyl)carbamoyloxy]methyl}piperidyl)-2-oxoethyl]-N-methylcarboxamide] | 5.54
12 | CCc1ccc(NC(=O)OCC2(C(=O)NCc3ccccc3Cl)CCN(C(=O)C(CO)NC(=O)OC(C)(C)C)CC2)cc1 (stereo not shown) [(tert-butoxy)-N-[2-(4-{N-[(2-chlorophenyl)methyl]carbamoyl}-4-{[N-(4-ethylphenyl)carbamoyloxy]methyl}piperidyl)-1-(hydroxymethyl)-2-oxoethyl]carboxamide] | 6.18
13 | CCc1ccc(NC(=O)OCC2(C(=O)NCc3ccccc3Cl)CCN(C(=O)C(C)N(C)C(=O)OC(C)(C)C)CC2)cc1 (stereo not shown) [(tert-butoxy)-N-[2-(4-{N-[(2-chlorophenyl)methyl]carbamoyl}-4-{[N-(4-ethylphenyl)carbamoyloxy]methyl}piperidyl)-1-methyl-2-oxoethyl]-N-methylcarboxamide] | 5.21

Next, values leading:

Row | pIC50 | SMILES
14 | 5.83 | CCc1ccc(NC(=O)OCC2(C(=O)NCc3ccccc3Cl)CCCN(C(=O)[C@@H](N)CO)C2)cc1 (stereo partly drawn) [(1-((2S)-2-amino-3-hydroxypropanoyl)-3-{[N-(4-ethylphenyl)carbamoyloxy]methyl}(3-piperidyl))-N-[(2-chlorophenyl)methyl]carboxamide]
15 | 6.14 | CCc1ccc(NC(=O)OCC2(C(=O)NCc3ccccc3Cl)CCN(C(=O)[C@H](C)N)CC2)cc1 [(1-((2S)-2-aminopropanoyl)-4-{[N-(4-ethylphenyl)carbamoyloxy]methyl}(4-piperidyl))-N-[(2-chlorophenyl)methyl]carboxamide]
16 | 6.66 | CCc1ccc(NC(=O)OCC2(C(=O)NCc3ccccc3Cl)CCN(C(=O)C3CCN3)CC2)cc1 (stereo not shown) [(1-(azetidin-2-ylcarbonyl)-4-{[N-(4-ethylphenyl)carbamoyloxy]methyl}(4-piperidyl))-N-[(2-chlorophenyl)methyl]carboxamide]
17 | 6.38 | CCc1ccc(NC(=O)OCC2(C(=O)NCc3ccccc3Cl)CCN(C(C)=O)CC2)cc1 [(1-acetyl-4-{[N-(4-ethylphenyl)carbamoyloxy]methyl}(4-piperidyl))-N-[(2-chlorophenyl)methyl]carboxamide]
18 | 5.43 | CCc1ccc(NC(=O)OCCOC(=O)NCc2ccccc2Cl)cc1 [(2-{N-[(2-chlorophenyl)methyl]carbamoyloxy}ethoxy)-N-(4-ethylphenyl)carboxamide]
19 | 5.62 | CCc1ccc(NC(=O)OCC2CN(C(=O)CN)CCN2C(=O)NCc2ccccc2Cl)cc1 (stereo not shown) [(4-(2-aminoacetyl)-2-{[N-(4-ethylphenyl)carbamoyloxy]methyl}piperazinyl)-N-[(2-chlorophenyl)methyl]carboxamide]
20 | 4.82 | CCc1ccc(NC(=O)N2CCN(C(=O)CN)C(C(=O)NCc3ccccc3Cl)C2)cc1 (stereo not shown) [(4-(2-aminoacetyl)-3-{N-[(2-chlorophenyl)methyl]carbamoyl}piperazinyl)-N-(4-ethylphenyl)carboxamide]
21 | 5.90 | Cc1ccc(NC(=O)OCC2(C(=O)NCc3ccccc3Cl)CCOCC2)c(C)c1 [(4-{[N-(2,4-dimethylphenyl)carbamoyloxy]methyl}(2H-3,4,5,6-tetrahydropyran-4-yl))-N-[(2-chlorophenyl)methyl]carboxamide]
22 | 4.76 | O=C(Nc1ccccc1Cl)OCC1(C(=O)NCc2ccccc2Cl)CCOCC1 [(4-{[N-(2-chlorophenyl)carbamoyloxy]methyl}(2H-3,4,5,6-tetrahydropyran-4-yl))-N-[(2-chlorophenyl)methyl]carboxamide]
23 | 4.74 | O=C(Nc1cc(Cl)cc(Cl)c1)OCC1(C(=O)NCc2ccccc2Cl)CCOCC1 [(4-{[N-(3,5-dichlorophenyl)carbamoyloxy]methyl}(2H-3,4,5,6-tetrahydropyran-4-yl))-N-[(2-chlorophenyl)methyl]carboxamide]
24 | 5.71 | Cc1ccc(NC(=O)OCC2(C(=O)NCc3ccccc3Cl)CCOCC2)cc1Cl [(4-{[N-(3-chloro-4-methylphenyl)carbamoyloxy]methyl}(2H-3,4,5,6-tetrahydropyran-4-yl))-N-[(2-chlorophenyl)methyl]carboxamide]
25 | 5.93 | CC(=O)c1ccc(NC(=O)OCC2(C(=O)NCc3ccccc3Cl)CCN(C(=O)CN)CC2)cc1 [(4-{[N-(4-acetylphenyl)carbamoyloxy]methyl}-1-(2-aminoacetyl)(4-piperidyl))-N-[(2-chlorophenyl)methyl]carboxamide]
26 | 4.77 | CCc1ccc(NC(=O)N[C@H]2CCCC[C@@H]2C(=O)NCc2ccccc2Cl)cc1 [((1S,2S)-2-{[(4-ethylphenyl)amino]carbonylamino}cyclohexyl)-N-[(2-chlorophenyl)methyl]carboxamide]
27 | 6.73 | CCc1ccc(NC(=O)OC[C@@H]2CCCN2C(=O)NCc2ccccc2Cl)cc1 [((2S)-2-{[N-(4-ethylphenyl)carbamoyloxy]methyl}pyrrolidinyl)-N-[(2-chlorophenyl)methyl]carboxamide]
28 | 5.84 | CCc1ccc(NC(=O)OC[C@@H]2C[C@@H](N)CN2C(=O)NCc2ccccc2Cl)cc1 [((5S,3R)-3-amino-5-{[N-(4-ethylphenyl)carbamoyloxy]methyl}pyrrolidinyl)-N-[(2-chlorophenyl)methyl]carboxamide]
